Measurements taken from patent US11612681B2, “Compositions and devices for removal of endotoxins and cytokines from fluids” (priority 2017, dated 2023).

Legend:
[1] = type: binding, E. coli; details: 40:1 mass ratio of PMB/LPS
Protocol: (§1) Electrophoresis Assays. The binding capacities of the telodendrimers with LPS and/or BSA were studied and compared with PMB binding using electrophoresis assay. The electrophoresis was carried out in 1.5% agarose gel (tris-borate-EDTA (TBE) buffer) at constant current of 20 mA for 2 h. The gel was imaged by a Bio-Rad Universal Hood II Imager (Bio-Rad Laboratories, Inc.) under SYBR Green modes or photographed under UV illumination.
as §1, with “assays.” for “Assays.”, “bovine serum albumin (BSA)” for “BSA”, “(Tris-borate-EDTA” for “(tris-borate-EDTA”

[2] = Fluorescent polarization assay of FITC-LPS complexation; type: binding; details: FITC-LPS 10 μg/mL in PBS
Protocol: Fluorescent polarization assays. The fluorescence polarization (FP) was measured on the Multi-Mode Microplate Reader (Synergy™ 2, Biotek, VT) equipped with dichroic mirror (510 nm) and polarizing filter. The measurements were carried out on black flat bottom 96-well plates (Nunclon™ Surface, Roskilde, Denmark). The FP of LPS-FITC was record at excitation and emission filter of 485/20 nm and 528/20 nm, respectively. The experiments were performed in triplicate.

With Polymyxin B [PMB] the “stability of LPS complex in electrophoresis” value [1] was “unstable and dissociated” and the “fluorescent polarization of FITC-LPS” value [2] was “only slightly increased”.
